# Where two headings read alike, the source gives them in different places.
# Columns and labels:
# human FABP4 (huFABP4) = human FABP4 (huFABP4) (Homo sapiens (Human), UniProt P15090); experiment: Tb TR-FRET assay, binding of Bodipy labeled fatty acid to His6 tagged huFABP4; settings: read-out: IC50 h-fabp4-ecoli-r
# human FABP5 (huFABP5) = human FABP5 (huFABP5) (Homo sapiens (Human), UniProt Q01469); experiment: Tb TR-FRET assay, binding of Bodipy labeled fatty acid to His6 tagged huFABP5; settings: read-out: IC50 h-fabp5-ecoli-r
# [1] = 50 nM FABP protein, […] Bodipy labeled fatty acid
# human FABP5 (huFABP5), sequence (Q01469 whole entry): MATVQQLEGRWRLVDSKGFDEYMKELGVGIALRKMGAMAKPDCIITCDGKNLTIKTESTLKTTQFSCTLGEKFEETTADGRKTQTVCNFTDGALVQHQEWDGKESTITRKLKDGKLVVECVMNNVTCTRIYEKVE
# human FABP4 (huFABP4), sequence (P15090 whole entry): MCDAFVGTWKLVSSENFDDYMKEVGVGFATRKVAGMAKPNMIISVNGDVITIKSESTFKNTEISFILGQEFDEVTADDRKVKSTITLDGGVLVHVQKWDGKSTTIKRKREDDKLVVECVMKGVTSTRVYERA
SMILES,IC50 (human FABP4 (huFABP4); [1]) [nM],IC50 (human FABP5 (huFABP5); [1]) [nM],IC50 (human FABP4 (huFABP4)) [nM],IC50 (human FABP5 (huFABP5)) [nM]
"O=C(O)[C@H]1CCN1C(=O)Nc1ccccc1-c1ccccc1 [Example 28, (R)-1-(biphenyl-2-ylcarbamoyl)azetidine-2-carboxylic acid]",80,> 50000,–,–
"O=C(O)[C@H]1CCCN1C(=O)Nc1ccc(Cl)cc1-c1ccccc1 [Example 2, (R)-1-(5-chlorobiphenyl-2-ylcarbamoyl)pyrrolidine-2-carboxylic acid]",2040,21000,–,–
"CC1(C(=O)O)CCCN1C(=O)Nc1ccccc1-c1ccccc1 (stereo not drawn) [Example 15, 1-(biphenyl-2-ylcarbamoyl)-2-methylpyrrolidine-2-carboxylic acid]",860,> 50000,–,–
"CCc1ccc(-c2ccccc2)c(NC(=O)N2CCC[C@@H]2C(=O)O)c1 [Example 62, (R)-1-(4-ethylbiphenyl-2-ylcarbamoyl)pyrrolidine-2-carboxylic acid]",1860,> 50000,–,–
"O=C(Nc1ccccc1-c1ccccc1)N1CCCC1(C(=O)O)c1ccccc1 (stereo not drawn) [Example 6, 1-(Biphenyl-2-ylcarbamoyl)-2-phenyl-pyrrolidine-2-carboxylic acid]",620,> 50000,–,–
"O=C(O)[C@H]1CCCN1C(=O)Nc1cc(Cl)cc(C2=CCCCC2)c1-c1ccccc1 [Example 26, (R)-1-[4-chloro-6-(cyclohexen-1-yl)-biphenyl-2-ylcarbamoyl]pyrrolidine-2-carboxylic acid]",530,70,–,–
"O=C(O)[C@H]1CCN1C(=O)Nc1cc(Cl)ccc1-c1cc(F)cc(F)c1 [Example 39, (R)-1-(4-chloro-3′,5′-difluorobiphenyl-2-ylcarbamoyl)azetidine-2-carboxylic acid]",60,> 50000,–,–
"O=C(O)[C@H]1CCCN1C(=O)Nc1cc(OC(F)(F)F)ccc1-c1ccccc1 [Example 17, (R)-1-(4-(trifluoromethoxy)biphenyl-2-ylcarbamoyl)pyrrolidine-2-carboxylic acid]",5710,> 50000,–,–
"O=C(O)[C@H]1CCN1C(=O)Nc1cc(Cl)ccc1-c1cccc(F)c1 [Example 38, (R)-1-(4-chloro-3′-fluorobiphenyl-2-ylcarbamoyl)azetidine-2-carboxylic acid]",30,> 50000,–,–
"O=C(O)[C@@H]1[C@H]2C[C@H]2CN1C(=O)Nc1ccccc1-c1ccccc1 (racemic) [Example 9, (1SR,2SR,5RS)-3-(Biphenyl-2-ylcarbamoyl)-3-aza-bicyclo[3.1.0]hexane-2-carboxylic acid]",–,–,9100,> 50000
"O=C(O)[C@H]1CCCN1C(=O)Nc1cc(Cl)ccc1-c1ccsc1 [Example 52, (R)-1-(5-chloro-2-(thiophen-3-yl)phenylcarbamoyl)pyrrolidine-2-carboxylic acid]",60,> 10400,–,–
"O=C(O)[C@H]1CCCN1C(=O)Nc1cc(Cl)ccc1-c1csc2ccccc12 [Example 53, (R)-1-(2-(benzo[b]thiophen-3-yl)-5-chlorophenylcarbamoyl)pyrrolidine-2-carboxylic acid]",340,42200,–,–
"O=C(O)[C@H]1CCCN1C(=O)Nc1c(-c2ccccc2)sc2ncccc12 [Example 22, (R)-1-(2-phenylthieno[2,3-b]pyridin-3-ylcarbamoyl)pyrrolidine-2-carboxylic acid]",1660,> 50000,–,–
"O=C(O)[C@H]1CCN1C(=O)Nc1cc(Cl)ccc1-c1ccc(F)cc1 [Example 29, (R)-1-(4-chloro-4′-fluorobiphenyl-2-ylcarbamoyl)azetidine-2-carboxylic acid]",30,> 50000,–,–
"O=C(O)[C@H]1CCCN1C(=O)Nc1cc(C(F)(F)F)ccc1-c1ccccc1 [Example 13, (R)-1-(4-(trifluoromethyl)biphenyl-2-ylcarbamoyl)pyrrolidine-2-carboxylic acid]",3950,> 50000,–,–
"O=C(O)C1SCCN1C(=O)Nc1ccccc1-c1ccccc1 (stereo not drawn) [Example 7, 3-(Biphenyl-2-ylcarbamoyl)-thiazolidine-2-carboxylic acid]",9820,> 50000,–,–
"O=C(O)[C@H]1CCCN1C(=O)Nc1c(-c2ccccc2)sc2ccccc12 [Example 21, (R)-1-(2-phenylbenzo[b]thiophen-3-ylcarbamoyl)pyrrolidine-2-carboxylic acid]",670,> 50000,–,–
"O=C(O)[C@H]1CCCN1C(=O)Nc1cc(Cl)ccc1-c1ccncc1 [Example 58, (R)-1-(5-chloro-2-(pyridin-4-yl)phenylcarbamoyl)pyrrolidine-2-carboxylic acid]",2000,> 50000,–,–
"O=C(O)[C@H]1CCCN1C(=O)Nc1cc(Cl)ccc1-c1ccccc1 [Example 10, (R)-1-(4-chlorobiphenyl-2-ylcarbamoyl)pyrrolidine-2-carboxylic acid]",120,> 1440,–,–
"O=C(O)[C@H]1CCN1C(=O)Nc1cc(Cl)ccc1-c1ccc(F)cc1F [Example 63, (R)-1-(4-chloro-2′,4′-difluorobiphenyl-2-ylcarbamoyl)azetidine-2-carboxylic acid]",30,> 50000,–,–

SMILES,IC50 (human FABP4 (huFABP4); [1]) [nM],IC50 (human FABP5 (huFABP5); [1]) [nM],IC50 (human FABP4 (huFABP4)) [nM],IC50 (human FABP5 (huFABP5)) [nM]
"O=C(O)[C@H]1CCN1C(=O)Nc1cc(Cl)c(F)cc1-c1ccccc1 [Example 30, (R)-1-(4-chloro-5-fluorobiphenyl-2-ylcarbamoyl)azetidine-2-carboxylic acid]",20,40100,–,–
"COc1ccc(-c2ccc(Cl)cc2NC(=O)N2CCC[C@@H]2C(=O)O)cc1 [Example 60, (R)-1-(4-chloro-4′-methoxybiphenyl-2-ylcarbamoyl)pyrrolidine-2-carboxylic acid]",3450,> 50000,–,–
"O=C(O)[C@H]1CCCN1C(=O)Nc1c(F)cccc1-c1ccccc1 [Example 11, (R)-1-(3-fluorobiphenyl-2-ylcarbamoyl)pyrrolidine-2-carboxylic acid]",860,> 50000,–,–
"O=C(O)[C@H]1CCCN1C(=O)Nc1ccsc1-c1ccccc1 [Example 24, (R)-1-(2-phenylthiophen-3-ylcarbamoyl)pyrrolidine-2-carboxylic acid]",1670,> 50000,–,–
"O=C(O)[C@H]1CCCN1C(=O)Nc1cc(Cl)cc(-c2ccccc2)c1-c1ccccc1 [Example 19, (R)-1-(5′-Chloro-[1,1′;2′,1″]terphenyl-3′-ylcarbamoyl)-pyrrolidine-2-carboxylic acid]",500,1220,–,–
"Cc1cc(-c2ccccc2)c(NC(=O)N2CC[C@@H]2C(=O)O)cc1Cl [Example 31, (R)-1-(4-chloro-5-methylbiphenyl-2-ylcarbamoyl)azetidine-2-carboxylic acid]",30,5080,–,–
"NC(=O)c1cccc(-c2ccc(Cl)cc2NC(=O)N2CCC[C@@H]2C(=O)O)c1 [Example 56, (R)-1-(3′-carbamoyl-4-chlorobiphenyl-2-ylcarbamoyl)pyrrolidine-2-carboxylic acid]",11100,> 50000,–,–
"COc1cc(Cl)cc(NC(=O)N2CC[C@@H]2C(=O)O)c1-c1ccc(F)cc1 [Example 64, (R)-1-(4-chloro-4′-fluoro-6-methoxybiphenyl-2-ylcarbamoyl)azetidine-2-carboxylic acid]",20,6660,–,–
"O=C(O)[C@@H]1CCN1C(=O)Nc1cc(Cl)ccc1-c1ccccc1 [Example 27, (S)-1-(4-chlorobiphenyl-2-ylcarbamoyl)azetidine-2-carboxylic acid]",1220,> 50000,–,–
"O=C(O)[C@H]1CCN1C(=O)Nc1cc(Cl)ccc1-c1cccc(F)c1F [Example 36, (R)-1-(4-chloro-2′,3′-difluorobiphenyl-2-ylcarbamoyl)azetidine-2-carboxylic acid]",60,> 50000,–,–
"O=C(O)[C@H]1CCCN1C(=O)Nc1cc(Cl)ccc1-c1ccc(Cl)cc1 [Example 59, (R)-1-(4,4′-dichlorobiphenyl-2-ylcarbamoyl)pyrrolidine-2-carboxylic acid]",2080,> 50000,–,–
"O=C(O)[C@H]1CCCN1C(=O)Nc1cc(F)cc(F)c1-c1ccccc1 [Example 14, (R)-1-(4,6-difluorobiphenyl-2-ylcarbamoyl)pyrrolidine-2-carboxylic acid]",310,> 6860,–,–
"N#Cc1ccc(-c2ccccc2)c(NC(=O)N2CCC[C@@H]2C(=O)O)c1 [Example 20, (R)-1-(4-cyanobiphenyl-2-ylcarbamoyl)pyrrolidine-2-carboxylic acid]",10500,> 50000,–,–
"O=C(O)C1CCCCN1C(=O)Nc1ccccc1-c1ccccc1 (stereo not drawn) [Example 1, 1-(Biphenyl-2-ylcarbamoyl)-piperidine-2-carboxylic acid]",8060,> 50000,–,–
"O=C(O)[C@H]1CCCN1C(=O)Nc1cc(Cl)ccc1-c1ccc(F)cc1 [Example 54, (R)-1-(4-chloro-4′-fluorobiphenyl-2-ylcarbamoyl)pyrrolidine-2-carboxylic acid]",60,> 29600,–,–
"C=CCc1cc(Cl)cc(NC(=O)N2CCC[C@@H]2C(=O)O)c1-c1ccccc1 [Example 23, (R)-1-(6-allyl-4-chlorobiphenyl-2-ylcarbamoyl)pyrrolidine-2-carboxylic acid]",110,1290,–,–
"O=C(O)[C@H]1CCN1C(=O)Nc1cc(Cl)ccc1-c1ccccc1 [Example 12, (R)-1-(4-chlorobiphenyl-2-ylcarbamoyl)azetidine-2-carboxylic acid]",20,> 50000,–,–
"O=C(O)[C@H]1CCCN1C(=O)Nc1cc(Cl)ccc1C1=CCCCC1 [Example 57, (R)-1-[5-chloro-2-(cyclohexen-1-yl)phenylcarbamoyl]pyrrolidine-2-carboxylic acid]",1100,> 50000,–,–
"O=C(O)[C@H]1CCN1C(=O)Nc1cc(Cl)ccc1-c1ccccc1F [Example 37, (R)-1-(4-chloro-2′-fluorobiphenyl-2-ylcarbamoyl)azetidine-2-carboxylic acid]",30,> 50000,–,–

# From patent publication US9708340B2, “Urea derivatives and their use as fatty-acid binding protein (FABP) inhibitors” (Hoffmann-La Roche Inc., priority 2013, dated 2017)
